Assay results: patent publication US20050209278A1, “Piperidinyl- and piperazinyl-sulfonylmethyl hydroxamic acids and their use as protease inhibitors” (priority 2002, published 2005)
Where two headings read alike, the source gives them in different places.

Experiments:
[1] = target: T1, MMP-1 (Homo sapiens, UniProt P03956); assay: In vitro MMP inhibition, Ki determination (fluorogenic substrate II); format: biochemical; conditions: read-out: MMP-1 Ki
T1 construct: made in house; host or cells: MMP-1-transfected HT-1080 cells (spent media)
T1 sequence (P03956 100-469): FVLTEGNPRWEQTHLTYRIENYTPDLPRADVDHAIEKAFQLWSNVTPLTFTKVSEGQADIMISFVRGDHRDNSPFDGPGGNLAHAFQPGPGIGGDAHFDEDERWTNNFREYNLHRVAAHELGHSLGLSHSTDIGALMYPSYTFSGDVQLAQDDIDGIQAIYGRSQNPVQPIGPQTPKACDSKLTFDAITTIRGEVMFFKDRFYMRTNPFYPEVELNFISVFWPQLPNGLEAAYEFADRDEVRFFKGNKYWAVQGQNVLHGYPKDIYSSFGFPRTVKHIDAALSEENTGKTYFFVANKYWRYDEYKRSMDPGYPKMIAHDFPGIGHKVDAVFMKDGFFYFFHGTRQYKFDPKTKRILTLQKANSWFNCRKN

[2] = target: T2, MMP-9 (Homo sapiens, UniProt P14780); assay: as above; format: biochemical
T2 construct: made in house; host or cells: MMP-9-transfected HT1080 cells (spent media)
T2 sequence (P14780 107-707 limits assumed): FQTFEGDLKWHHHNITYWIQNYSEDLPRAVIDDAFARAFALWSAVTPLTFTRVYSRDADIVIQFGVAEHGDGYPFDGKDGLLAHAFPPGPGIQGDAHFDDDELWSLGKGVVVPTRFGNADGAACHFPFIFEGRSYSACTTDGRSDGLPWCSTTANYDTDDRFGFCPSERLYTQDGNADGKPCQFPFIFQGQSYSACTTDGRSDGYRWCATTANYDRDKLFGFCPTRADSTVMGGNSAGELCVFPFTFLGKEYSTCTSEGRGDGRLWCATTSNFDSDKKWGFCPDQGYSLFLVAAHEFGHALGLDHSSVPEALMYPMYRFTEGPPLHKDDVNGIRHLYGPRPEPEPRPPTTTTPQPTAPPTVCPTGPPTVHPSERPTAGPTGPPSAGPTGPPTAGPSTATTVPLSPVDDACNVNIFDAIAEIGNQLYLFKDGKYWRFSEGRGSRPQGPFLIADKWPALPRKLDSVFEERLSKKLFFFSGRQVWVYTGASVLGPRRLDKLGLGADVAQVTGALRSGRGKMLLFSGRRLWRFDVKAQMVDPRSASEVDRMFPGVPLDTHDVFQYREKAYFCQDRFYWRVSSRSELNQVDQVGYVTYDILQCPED
Summary of the method: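 HT1080-derived MMP-9, activated with APMA, trypsin or MMP-3, incubated 1 hr at room temperature with inhibitor and 4 μM fluorogenic substrate II (at or below Km) in pH 7.5 Tris/NaCl/CaCl2 buffer; ex 330/em 420 nm. Ki from Morrison-equation regression, without substrate correction.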

Ki ([1]; value outside parentheses) [nM]	Ki ([2]; value outside parentheses) [nM]	Ki ([1]; value not in parenthesis) [nM]	Ki ([2]; value not in parenthesis) [nM]	Structure (SMILES)
> 10000	1.57			CCCCOc1ccc(N2CCN(S(=O)(=O)C3(C(=O)NO)CCN(C(N)=O)CC3)CC2)cc1 [Example 253]
> 10000	2.16			CCCCOc1ccc(N2CCN(S(=O)(=O)C3(C(=O)NO)CCN(c4ccc(Cl)nn4)CC3)CC2)cc1 [Example 281]
> 10000	2			CCCCOc1ccc(N2CCN(S(=O)(=O)C3(C(=O)NO)CCN(C(=O)CCCC)CC3)CC2)cc1 [Example 278]
> 10000	0.098			CCCCOc1ccc(N2CCN(S(=O)(=O)C3(C(=O)NO)CCN(C(C)=O)CC3)CC2)cc1 [Example 282]
> 10000	3.51			CCCCOc1ccc(N2CCN(S(=O)(=O)C3(C(=O)NO)CCN(C(=O)CN)CC3)CC2)cc1 [Example 292]
> 10000	0.946			CCCCOc1ccc(N2CCN(S(=O)(=O)C3(C(=O)NO)CCN(C(=O)C4CC4)CC3)CC2)cc1 [Example 260]
		> 10000	21.9	CCCCOc1ccc(N2CCN(S(=O)(=O)C3(C(=O)NO)CCN(C(=O)OCC(C)(C)C)CC3)CC2)cc1 [Example 97]
7470	1.49			CCCCOc1ccc(N2CCN(S(=O)(=O)C3(C(=O)NO)CCN(C(=O)CO)CC3)CC2)cc1 [Example 271]
> 10000	9.39			CCCCOc1ccc(N2CCN(S(=O)(=O)C3(C(=O)NO)CCNCC3)CC2)cc1 [Example 276]
> 10000	0.95			CCCCOc1ccc(N2CCN(S(=O)(=O)C3(C(=O)NO)CCN(C(=O)c4ccccn4)CC3)CC2)cc1 [Example 277]
> 10000	2.14			CCCCOc1ccc(N2CCN(S(=O)(=O)C3(C(=O)NO)CCN(C(=O)CC(F)(F)F)CC3)CC2)cc1 [Example 265]
> 10000	9.83			CCCCOc1ccc(N2CCN(S(=O)(=O)C3(C(=O)NO)CCN(Cc4ccccc4)CC3)CC2)cc1F [Example 285]
> 10000	17.1			CCCCOc1ccc(N2CCN(S(=O)(=O)C3(C(=O)NO)CCN(c4ccc(C)cc4)CC3)CC2)cc1 [Example 295]
> 10000	1.43			CCCCOc1ccc(N2CCN(S(=O)(=O)C3(C(=O)NO)CCN(Cc4ccco4)CC3)CC2)cc1 [Example 252]
		> 10000	60.1	CCCCOc1ccc(N2CCN(S(=O)(=O)C3(C(=O)NO)CCN(c4nc5ccccc5s4)CC3)CC2)cc1 [Example 93]
> 10000	0.807			CCCCOc1ccc(N2CCN(S(=O)(=O)C3(C(=O)NO)CCN(c4ccc(C)nn4)CC3)CC2)cc1 [Example 275]

Ki ([1]; value outside parentheses) [nM]	Ki ([2]; value outside parentheses) [nM]	Ki ([1]; value not in parenthesis) [nM]	Ki ([2]; value not in parenthesis) [nM]	Structure (SMILES)
> 10000	0.63			CCCCOc1ccc(N2CCN(S(=O)(=O)C3(C(=O)NO)CCN(C(=O)N(C)C)CC3)CC2)cc1 [Example 254]
> 10000	57.4			CCCCOc1ccc(N2CCN(S(=O)(=O)C3(C(=O)NO)CCN(c4ccc(Cl)cc4)CC3)CC2)cc1 [Example 251]
> 10000	2.54			CCCCOc1ccc(N2CCN(S(=O)(=O)C3(C(=O)NO)CCN(C(=O)c4ccccc4)CC3)CC2)cc1 [Example 255]
> 10000	3.61			CCCCOc1ccc(N2CCN(S(=O)(=O)C3(C(=O)NO)CCN(C)CC3)CC2)cc1 [Example 280]
> 10000	2.99			CCCCOc1ccc(N2CCN(S(=O)(=O)C3(C(=O)NO)CCN(CC4CC4)CC3)CC2)cc1 [Example 298]
6400	0.953			CCCCOc1ccc(N2CCN(S(=O)(=O)C3(C(=O)NO)CCN(C=O)CC3)CC2)cc1 [Example 269]
		> 10000	73.9	CCCCOc1ccc(N2CCN(S(=O)(=O)C3(C(=O)NO)CCN(c4ccc(Cl)c(Cl)c4)CC3)CC2)cc1 [Example 250]
> 10000	2.54			CCCCOc1ccc(N2CCN(S(=O)(=O)C3(C(=O)NO)CCN(C(=O)C(C)(C)C)CC3)CC2)cc1 [Example 267]
> 10000	1.66			CCCCOc1ccc(N2CCN(S(=O)(=O)C3(C(=O)NO)CCN(C(=O)CC)CC3)CC2)cc1 [Example 274]
> 10000	13.9			COCCN1CCC(C(=O)NO)(S(=O)(=O)N2CCN(c3ccc(Oc4ccccc4)cc3)CC2)CC1 [Example 287]
> 10000	1.48			C#CCN1CCC(C(=O)NO)(S(=O)(=O)N2CCN(c3ccc(OCCCC)cc3)CC2)CC1 [Example 303]
> 10000	0.957			CCCCOc1ccc(N2CCN(S(=O)(=O)C3(C(=O)NO)CCN(C(=O)c4cccnc4)CC3)CC2)cc1 [Example 266]
> 10000	47.6			CCCCOc1ccc(N2CCN(S(=O)(=O)C3(C(=O)NO)CCN(c4ccc(C)cc4)CC3)CC2)cc1F [Example 296]
> 10000	1.35			CCCCOc1ccc(N2CCN(S(=O)(=O)C3(C(=O)NO)CCN(C(=O)c4ccncc4)CC3)CC2)cc1 [Example 259]
> 10000	9.11			CCCCOc1ccc(N2CCN(S(=O)(=O)C3(C(=O)NO)CCN(C4CC4)CC3)CC2)cc1 [Example 301]

The remaining lines, values behind:

Structure (SMILES)	Ki ([1]; value outside parentheses) [nM]	Ki ([2]; value outside parentheses) [nM]	Ki ([1]; value not in parenthesis) [nM]	Ki ([2]; value not in parenthesis) [nM]
O=C(NO)C1(S(=O)(=O)N2CCC(c3ccc(Br)cn3)CC2)CCOCC1 [Example 306]	602	1.03		
CCN1CCC(C(=O)NO)(S(=O)(=O)N2CCN(c3ccc(OCCCC(F)(F)F)cc3)CC2)CC1 [Example 78]			> 10000	22.8
O=C(NO)C1(S(=O)(=O)N2CCN(c3ccc(SC(F)(F)F)cc3)CC2)CCS(=O)(=O)CC1 [Example 258]	> 10000	457		
O=C(NO)C1(S(=O)(=O)N2CCN(c3ccc(OCCCC(F)(F)F)cc3F)CC2)CCOCC1 [Example 81]			> 10000	29.2
COCCOc1ccc(N2CCN(S(=O)(=O)C3(C(=O)NO)CCN(C4CC4)CC3)CC2)cc1F [Example 297]	> 10000	19.5		
CCCCCc1ccc(C2CCN(S(=O)(=O)C3(C(=O)NO)CCOCC3)CC2)nc1 [Example 305]	6700	0.133		
Cc1cc(N2CCN(S(=O)(=O)C3(C(=O)NO)CCOCC3)CC2)ccc1OC(C)C [Example 299]	> 10000	43.6		
COCCN1CCC(C(=O)NO)(S(=O)(=O)N2CCC(c3ccc(CCC(F)(F)C(F)(F)F)cc3)CC2)CC1 [Example 312]	> 10000	0.24		
CCc1ccc(N2CCN(S(=O)(=O)C3(C(=O)NO)CCCCC3)CC2)nc1 [Example 263]	605	0.634		
O=C(NO)C1(S(=O)(=O)N2CCN(c3ccc(C(F)(F)F)cn3)CC2)CCOCC1 [Example 94]			767	14.3
O=C(NO)C1(S(=O)(=O)N2CCN(c3ccc(COCC(F)(F)C(F)F)cc3)CC2)CCOCC1 [Example 71]			> 10000	13
CCCCOc1ccc(N2CCN(S(=O)(=O)C3(C(=O)NO)CCOCC3)CC2)nc1 [Example 100]			1600	0.3
O=C(NO)C1(S(=O)(=O)N2CCN(c3ccc(OC4CCC4)c(F)c3)CC2)CCOCC1 [Example 73]			> 10000	7.97
CCCCc1ccc(N2CCN(S(=O)(=O)C3(C(=O)NO)CCN(c4cccnc4)CC3)CC2)nc1 [Example 96]			> 10000	0.21
CCCCCc1ccc(N2CCN(S(=O)(=O)C3(C(=O)NO)CCN(c4ncccn4)CC3)CC2)nc1 [Example 95]			> 10000	0.99
CCCCc1ccc(N2CCN(S(=O)(=O)C3(C(=O)NO)CCOCC3)CC2)c(F)c1 [Example 91]			5110	0.452
O=C(NO)C1(S(=O)(=O)N2CCN(c3ccc(COCC(F)(F)F)cc3)CC2)CCOCC1 [Example 72]			> 10000	2.86
CCCCc1ccc(N2CCN(S(=O)(=O)C3(C(=O)NO)CCN(c4ncccn4)CC3)CC2)nc1 [Example 99]			8300	0.16
O=C(NO)C1(S(=O)(=O)N2CCN(c3ccc(OCCCC(F)(F)F)cn3)CC2)CCOCC1 [Example 83]			2850	4.21
O=C(NO)C1(S(=O)(=O)N2CCN(c3ccc(-c4ccccc4)cc3)CC2)CCOCC1 [Example 76]			1340	0.5
CC(C)COc1ccc(N2CCN(S(=O)(=O)C3(C(=O)NO)CCOCC3)CC2)cc1Cl [Example 79]			> 10000	41.5
CCCCc1ccc(N2CCN(S(=O)(=O)C3(C(=O)NO)CCN(CCOC)CC3)CC2)nc1 [Example 270]	> 10000	0.205		
O=C(NO)C1(S(=O)(=O)N2CCN(c3cccc(C(F)(F)F)c3)CC2)CCOCC1 [Example 82]			> 10000	249
CCCCc1ccc(C2CCN(S(=O)(=O)C3(C(=O)NO)CCN(CCOC)CC3)CC2)s1 [Example 55]			> 10000	0.35
CCCCc1ccc(C2CCN(S(=O)(=O)C3(C(=O)NO)CCOCC3)CC2)nc1 [Example 307]	6810			
CCCCOc1ccc(N2CCN(S(=O)(=O)C3(C(=O)NO)CCN(CCOC)CC3)CC2)c(F)c1 [Example 284]	> 10000	0.99		
CCCCOc1ccc(N2CCN(S(=O)(=O)C3(C(=O)NO)CCNCC3)CC2)cc1F [Example 286]	> 10000	22.3		
